Laboratory results taken from ChEMBL document CHEMBL2321810, “QSAR investigation of NaV1.7 active compounds using the SVM/Signature approach and the Bioclipse Modeling platform” (Bioorg Med Chem Lett, 2013).

Molecular target: Sodium channel protein type 9 subunit alpha (Homo sapiens, UniProt Q15858)
Test: cell-based

Sequence of Sodium channel protein type 9 subunit alpha (Q15858 whole entry): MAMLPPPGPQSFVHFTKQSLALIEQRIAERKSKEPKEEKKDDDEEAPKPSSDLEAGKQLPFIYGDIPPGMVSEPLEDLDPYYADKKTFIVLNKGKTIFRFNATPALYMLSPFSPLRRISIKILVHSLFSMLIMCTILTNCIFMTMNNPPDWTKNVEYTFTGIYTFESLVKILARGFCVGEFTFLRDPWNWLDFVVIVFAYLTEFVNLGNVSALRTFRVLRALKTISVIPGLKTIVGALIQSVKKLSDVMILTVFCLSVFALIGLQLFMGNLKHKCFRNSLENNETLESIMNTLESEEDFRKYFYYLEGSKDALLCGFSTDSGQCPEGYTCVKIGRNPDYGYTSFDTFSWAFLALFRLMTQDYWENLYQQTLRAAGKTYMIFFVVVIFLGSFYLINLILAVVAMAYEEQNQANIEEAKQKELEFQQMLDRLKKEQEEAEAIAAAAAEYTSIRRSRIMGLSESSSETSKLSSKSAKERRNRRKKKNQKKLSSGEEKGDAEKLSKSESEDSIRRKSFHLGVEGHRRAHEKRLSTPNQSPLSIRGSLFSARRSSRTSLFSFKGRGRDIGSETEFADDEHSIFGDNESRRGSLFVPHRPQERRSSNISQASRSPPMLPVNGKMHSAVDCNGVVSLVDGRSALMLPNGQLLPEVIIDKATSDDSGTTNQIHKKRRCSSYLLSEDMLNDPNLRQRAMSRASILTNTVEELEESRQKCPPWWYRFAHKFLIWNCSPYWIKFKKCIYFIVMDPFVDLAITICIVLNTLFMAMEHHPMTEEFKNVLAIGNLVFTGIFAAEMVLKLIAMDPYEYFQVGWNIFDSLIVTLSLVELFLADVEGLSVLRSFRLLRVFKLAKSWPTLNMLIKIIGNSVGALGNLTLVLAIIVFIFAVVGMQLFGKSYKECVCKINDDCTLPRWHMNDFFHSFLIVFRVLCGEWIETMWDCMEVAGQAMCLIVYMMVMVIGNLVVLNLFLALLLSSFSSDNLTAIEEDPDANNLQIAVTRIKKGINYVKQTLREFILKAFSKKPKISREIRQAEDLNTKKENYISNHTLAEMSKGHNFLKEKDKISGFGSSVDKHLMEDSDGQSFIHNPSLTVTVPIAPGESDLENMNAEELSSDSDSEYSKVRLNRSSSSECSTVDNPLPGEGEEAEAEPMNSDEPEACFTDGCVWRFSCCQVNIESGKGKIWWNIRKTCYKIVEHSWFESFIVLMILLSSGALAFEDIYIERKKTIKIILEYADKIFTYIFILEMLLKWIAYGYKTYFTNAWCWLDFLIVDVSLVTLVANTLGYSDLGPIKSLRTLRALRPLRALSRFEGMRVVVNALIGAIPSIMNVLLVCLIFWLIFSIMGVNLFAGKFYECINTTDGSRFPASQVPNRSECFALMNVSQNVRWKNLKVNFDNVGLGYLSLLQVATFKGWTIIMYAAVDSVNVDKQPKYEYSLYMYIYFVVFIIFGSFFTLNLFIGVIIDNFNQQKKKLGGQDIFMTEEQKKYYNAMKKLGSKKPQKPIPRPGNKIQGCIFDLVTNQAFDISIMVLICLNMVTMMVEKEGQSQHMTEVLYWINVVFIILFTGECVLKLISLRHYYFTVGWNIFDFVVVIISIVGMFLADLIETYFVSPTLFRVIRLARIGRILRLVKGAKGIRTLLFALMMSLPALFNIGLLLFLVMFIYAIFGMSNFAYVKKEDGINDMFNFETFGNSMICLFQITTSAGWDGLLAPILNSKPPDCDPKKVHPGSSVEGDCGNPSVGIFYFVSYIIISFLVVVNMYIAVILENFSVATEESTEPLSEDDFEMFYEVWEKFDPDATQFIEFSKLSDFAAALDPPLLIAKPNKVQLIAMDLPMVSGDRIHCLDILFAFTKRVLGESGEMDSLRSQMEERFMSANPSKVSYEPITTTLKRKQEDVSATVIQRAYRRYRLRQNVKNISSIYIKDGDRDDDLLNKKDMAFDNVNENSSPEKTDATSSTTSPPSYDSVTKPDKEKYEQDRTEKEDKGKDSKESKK

Compound	IC50 [nM]
N#Cc1cc(S(=O)(=O)Nc2nccs2)ccc1Oc1cccc(-n2ccc(C(F)(F)F)n2)c1	930
N#Cc1cc(S(=O)(=O)Nc2nncs2)ccc1Oc1ccc(Cl)cc1-c1cc(N2CCOCC2)ncn1	1000
N#Cc1cc(S(=O)(=O)Nc2nccs2)ccc1Oc1ccc(-c2cc(C3CC3)n[nH]2)c(Cl)c1	1000
N#Cc1cc(S(=O)(=O)Nc2nccs2)ccc1Oc1ccc(-n2cc(C(N)=O)cn2)cc1	1000
N#Cc1cc(S(=O)(=O)Nc2cscn2)ccc1Oc1ccc(Cl)cc1-c1ccn(C(F)(F)F)n1	1000
Cc1cc(C)n(-c2ccc(Oc3ccc(S(=O)(=O)Nc4nccs4)c(F)c3)cc2)n1	1000
N#Cc1cc(SNc2ncns2)ccc1Oc1ccc(F)cc1C1CC1	1000
N#Cc1cc(S(=O)(=O)Nc2ncns2)ccc1Oc1ccc(-n2cc(COC(=O)C(F)(F)F)cn2)cc1	1000
N#Cc1cc(S(=O)(=O)Nc2ncns2)ccc1Oc1ccc(-n2cc(CO)cn2)cc1	1000
N#Cc1cc(S(=O)(=O)Nc2nccs2)ccc1Oc1ccc(-c2cc(C(F)(F)F)n(CCCF)n2)cc1F	1000
CC1CN(c2ccc(Oc3ccc(S(=O)(=O)Nc4nccs4)cc3C#N)cc2)C(=O)N1 (stereo not drawn)	1000
CC(C)C1CN(c2ccc(Oc3ccc(S(=O)(=O)Nc4nccs4)cc3C#N)cc2)C(=O)N1 (stereo not drawn)	1000
COC(=O)c1cc(Oc2ccc(S(=O)(=O)Nc3nccs3)cc2C#N)ccc1-n1cc(Cl)cn1	1000
O=S(=O)(Nc1cscn1)c1cc(Cl)c(Oc2cc(C(F)(F)F)ccc2-c2cncnc2)cc1F	1000
Cn1cnnc1-c1cc(Cl)ccc1Oc1ccc(S(=O)(=O)Nc2nccs2)cc1F	1000
N#Cc1cc(S(=O)(=O)Nc2ncns2)cc(F)c1Oc1ccc(F)cc1-c1cn[nH]c1	740
CCn1nc(C(F)(F)F)cc1-c1ccc(Oc2ccc(S(=O)(=O)Nc3nncs3)cc2C#N)cc1	770
CCn1nc(C(F)(F)F)cc1-c1ccc(Oc2ccc(S(=O)(=O)Nc3ncc(F)s3)cc2F)cc1	820
N#Cc1cc(S(=O)(=O)Nc2nccs2)ccc1Oc1ccc(Cl)cc1-c1c[nH]nc1C(F)(F)F	430

Compound	IC50 [nM]
CC(C)(C)OC(=O)N1CCC(c2cc(Cl)ccc2Oc2ccc(S(=O)(=O)Nc3ncns3)cc2C#N)CC1	350
N#Cc1cc(S(=O)(=O)Nc2nccs2)ccc1Oc1ccc(-c2cc(C(F)(F)F)ccn2)cc1	370
Cc1nn(C(C)(C)C)cc1-c1cc(Cl)ccc1Oc1cc(F)c(S(=O)(=O)Nc2nncs2)cc1Cl	300
N#Cc1cc(S(=O)(=O)Nc2ncns2)ccc1Oc1cc(C(F)(F)F)nn1Cc1ccccc1	300
CCOCn1nncc1-c1cc(Cl)ccc1Oc1ccc(S(=O)(=O)Nc2nccs2)cc1C#N	300
Cn1cnc(-c2cc(Cl)ccc2Oc2ccc(S(=O)(=O)Nc3nccs3)cc2C#N)n1	300
O=S(=O)(Nc1cscn1)c1cc(Cl)c(Oc2ccc(C(F)(F)F)cc2-c2cncc(CO)c2)cc1F	300
Cn1nccc1-c1cc(C(F)(F)F)ncc1Oc1ccc(S(=O)(=O)Nc2ncc(Cl)s2)cc1C#N	220
O=S(=O)(Nc1cscn1)c1cc(Cl)c(Oc2cc(C(F)(F)F)ccc2-c2cn[nH]c2)cc1F	260
N#Cc1cc(S(=O)(=O)Nc2ncns2)ccc1Oc1ccc(C(F)(F)F)cc1C1=CN(O)CC=C1	110
N#Cc1cc(S(=O)(=O)Nc2nncs2)ccc1Oc1ccc(OC(F)(F)F)cc1-c1ccnnc1	100
O=S(=O)(Nc1nncs1)c1ccc(Oc2ccc(Cl)cc2-c2ccn[nH]2)c(Cl)c1	50
CC(C)(C)OC(=O)n1cc(-c2cc(Cl)ccc2Oc2cc(F)c(S(=O)(=O)Nc3nccs3)cc2F)cn1	56
CC(C)(C)OC(=O)n1cc(-c2cc(Cl)ccc2Oc2cc(F)c(S(=O)(=O)Nc3ncc(F)s3)cc2F)cn1	25
Nc1cc(-c2cc(Cl)ccc2Oc2cc(F)c(S(=O)(=O)Nc3cscn3)cc2F)ccn1	19
NC1=NCN=C1c1cc(Cl)ccc1Oc1cc(F)c(S(=O)(=O)Nc2ccncn2)cc1Cl	21
CCN1CC(n2nccc2-c2cc(C(F)(F)F)ccc2Oc2ccc(S(=O)(=O)Nc3cscn3)cc2C#N)C1	22
N#Cc1cc(S(=O)(=O)Nc2ncns2)ccc1Oc1ccc(Cl)cc1-c1ccnn1C1CCC1	12
N#Cc1cc(S(=O)(=O)Nc2ccc(F)cn2)ccc1Oc1ccc(CN2CCC2)c(F)c1	30000

Compound	IC50 [nM]
N#Cc1cc(S(=O)(=O)Nc2ncns2)ccc1Oc1ccc(Cl)cc1-c1ccnn1C1CC1	17
N#Cc1cc(S(=O)(=O)Nc2ncns2)ccc1Oc1ccc(C(F)(F)F)cc1C1CCOCC1	8.8
N#Cc1ccc(Oc2cc(F)c(S(=O)(=O)Nc3ncns3)cc2Cl)c(-c2ccn[nH]2)c1	9.4
O=S(=O)(Nc1ncc(Cl)s1)c1cc(Cl)c(Oc2ccc(Cl)cc2C2CNC2)cc1F	10
CCn1nc(C(F)(F)F)cc1-c1ccc(Oc2ccc(S(=O)(=O)Nc3ncccc3F)cc2C#N)cc1	14000
O=S(=O)(Nc1nccs1)c1ccc(Oc2ccc(Oc3ccccc3)cc2)c(F)c1	10000
Cc1cc(Oc2ccc(S(=O)(=O)Nc3ncc(Cl)s3)cc2C#N)n(C2CCCCC2)n1	10000
N#Cc1cc(S(=O)(=O)Nc2nccs2)ccc1Oc1cc(C2CC2)nn1-c1ccccn1	10000
O=S(=O)(Nc1cscn1)c1ccc(Oc2cc(C(F)(F)F)nn2-c2ccccc2)c(F)c1	10000
CCn1nc(C(F)(F)F)cc1-c1ccc(Oc2ccc(S(=O)(=O)Nc3ccc(C#N)cn3)cc2C#N)cc1	10000
O=S(=O)(Nc1ncns1)c1cc(F)c(Oc2ccc(Cl)cc2C2CCNCC2)cc1F	8.4
O=S(=O)(Nc1cscn1)c1cc(F)c(Oc2ccc(Cl)cc2-c2ccnc(N3CCNCC3)c2)cc1F	3.7
N#Cc1cc(S(=O)(=O)Nc2nccs2)ccc1Oc1ccc(-c2cnn(CC(F)(F)F)c2N)cc1	10000
NCc1cc(-c2cc(Cl)ccc2Oc2cc(F)c(S(=O)(=O)Nc3ncns3)cc2Cl)ccn1	4.9
Nc1cc(-c2cc(OC(F)(F)F)ccc2Oc2cc(F)c(S(=O)(=O)Nc3ncns3)cc2F)ccn1	2.4
CC(C)Oc1cc(-c2cc(F)ccc2Oc2ccc(S(=O)(=O)Nc3nccs3)cc2C#N)n(C)n1	1000
CCn1nc(-c2ccc(Oc3ccc(S(=O)(=O)Nc4nccs4)cc3C#N)c(F)c2)cc1C(F)(F)F	1000
N#Cc1cc(S(=O)(=O)Nc2nccs2)ccc1Oc1cnn(-c2ccc(Cl)cc2)c1	1000
N#Cc1cc(S(=O)(=O)Nc2nccs2)ccc1Oc1cnn(-c2ccc(Cl)cc2Cl)c1	1000

The next lines start with the values.

IC50 [nM]	Compound
1000	CCn1nc(C(F)(F)F)cc1-c1cccc(Oc2ccc(S(=O)(=O)Nc3ccc(F)cn3)cc2C#N)c1
840	Cc1cccc(-c2ccc(OC(C)C)cc2)c1Oc1ccc(S(=O)(=O)Nc2ncns2)cc1C#N
580	N#Cc1cc(S(=O)(=O)Nc2nccs2)ccc1Oc1ccc(Cl)cc1-c1ccccn1
670	N#Cc1cc(S(=O)(=O)Nc2ncns2)ccc1Oc1ccccc1-c1cccc(F)c1
740	CN(C)C(=O)c1cccc(-c2ccccc2)c1Oc1ccc(S(=O)(=O)c2ncns2)cc1C#N
530	N#Cc1cc(S(=O)(=O)Nc2ncc(F)s2)ccc1Oc1ccccc1-c1ccccc1
300	CCn1nc(C)c(-c2ccccc2Oc2ccc(S(=O)(=O)Nc3ncns3)cc2C#N)c1C
300	Cn1ncnc1-c1cc(Cl)ccc1Oc1ccc(S(=O)(=O)Nc2ncc(F)s2)cc1C#N
230	N#Cc1cc(S(=O)(=O)Nc2nccs2)ccc1Oc1ccc(F)cc1-c1ccc(F)nc1
90	CCn1nccc1-c1cc(F)ccc1Oc1ccc(S(=O)(=O)Nc2nccs2)cc1C#N
97	N#Cc1cc(S(=O)(=O)Nc2ncc(Cl)s2)ccc1Oc1ccc(Cl)cc1-c1ccnc(N)c1
30000	Cc1nc(-c2ccccc2Oc2ccc(S(=O)(=O)Nc3ccc(F)cn3)cc2C#N)cs1
30000	COc1cc(Oc2ccc(S(=O)(=O)Nc3ccc(F)cn3)cc2C#N)ccc1-n1cnc(C)c1
10	N#Cc1cc(S(=O)(=O)Nc2ncc(Cl)s2)ccc1Oc1ccc(F)cc1-c1cccc(N)n1
25000	N#Cc1ccc(NS(=O)(=O)c2ccc(Oc3ccccc3-c3ccccc3)c(C#N)c2)nc1
30000	Cn1nccc1-c1cc(Cl)ccc1Oc1ccc(S(=O)(=O)Nc2cncnc2)cc1C#N
10000	N#Cc1cc(S(=O)(=O)Nc2nccs2)ccc1Oc1ccccc1-c1ccno1
10000	N#Cc1cc(S(=O)(=O)Nc2nccs2)ccc1Oc1ccccc1-c1nncn1-c1ccccc1

IC50 [nM]	Compound
10000	Cc1cncnc1NS(=O)(=O)c1ccc(Oc2ccccc2-c2ccccc2)c(C#N)c1
10000	Cc1cnc(NS(=O)(=O)c2ccc(Oc3ccccc3-c3ccccc3)c(C#N)c2)nc1
10000	N#Cc1cnc(NS(=O)(=O)c2ccc(Oc3ccccc3-c3ccccc3)c(C#N)c2)nc1
10000	CC(C)(C)n1ccc(-c2c(F)cccc2Oc2ccc(S(=O)(=O)Nc3ncns3)cc2C#N)n1
12200	N#Cc1cnc(NS(=O)(=O)c2ccc(Oc3ccccc3-c3ccccc3)c(C#N)c2)s1
12	N#Cc1cc(S(=O)(=O)Nc2ncns2)ccc1Oc1ccc(C(F)(F)F)cc1-c1cccnc1
7	N#Cc1cc(S(=O)(=O)Nc2ncns2)ccc1Oc1cccc(Br)c1-c1cn[nH]c1
12500	CNc1ncc(Oc2ccc(S(=O)(=O)Nc3ncns3)cc2C#N)c(-c2ccc(F)cc2)n1
10000	N#Cc1cc(S(=O)(=O)Nc2cnoc2)ccc1Oc1ccccc1-c1ccccc1
10000	CCc1nsc(NS(=O)(=O)c2ccc(Oc3ccccc3-c3ccccc3)c(C#N)c2)n1
10000	N#Cc1cc(S(=O)(=O)Nc2ncns2)ccc1Oc1cnc(N)nc1-c1ccc(Cl)cc1
10000	N#Cc1cc(S(=O)(=O)Nc2ncns2)ccc1Oc1nccnc1-c1ccccc1
10000	N#Cc1cc(S(=O)(=O)Nc2ncns2)ccc1Oc1nnccc1-c1ccccc1
10000	N#Cc1cc(S(=O)(=O)Nc2ncns2)ccc1Oc1ccccc1Oc1ccccc1C(N)=O
10000	N#Cc1cc(S(=O)(=O)Nc2ncco2)ccc1Oc1ccccc1-c1ccccc1
10000	CC(C)c1nsc(NS(=O)(=O)c2ccc(Oc3ccccc3-c3ccccc3)c(C#N)c2)n1
10000	N#Cc1cc(S(=O)(=O)Nc2ccccc2)ccc1Oc1ccccc1-c1ccccc1
10000	N#Cc1cc(S(=O)(=O)Nc2cc(C(F)(F)F)ncn2)ccc1Oc1ccccc1-c1ccccc1
